According to article PMC9569940, “Discovery and In Vivo Efficacy of Trace Amine-Associated Receptor 1 (TAAR1) Agonist 4-(2-Aminoethyl)-N-(3,5-dimethylphenyl)piperidine-1-carboxamide Hydrochloride (AP163) for the Treatment of Psychotic Disorders” (International Journal of Molecular Sciences, 2022):
Entries after “also recorded” stand apart in the source; their conditions may differ. Structures can show the parent of a compound that is named as a salt.

What was measured:
[1] = molecular target: T1, TAAR1 (Homo sapiens, UniProt Q96RJ0); assay: BRET cAMP biosensor (EPAC) assay of TAAR1 agonistic activity in transiently transfected HEK-293 cells; format: cell-based; design: key to Agonistic Activity (class Inactive): Inactive: Producing less than 20% activation of TAAR1 relative to 1 μM tyramine hydrochloride; conditions: for EC50 / EC50, μM: TAAR1 agonistic activity, concentration-response; for Agonistic Activity at 1 μM, %: compound at 1 μM; for Agonistic Activity at 1 μM, % / activation at 10 µM: compared to 1 μM tyramine hydrochloride (positive control), primary screening; for Agonistic Activity (class Inactive): primary screening at 1 μM or 10 μM, relative to 1 μM tyramine hydrochloride; for TAAR1 Activity (active / inactive, in words): agonistic activity in words; for activation at 10 µM: HEK293, compound at 10 μM (footnote c)
T1 construct: expressed in transfected cells; host or cells: HEK-293 cells, transient transfection
T1 sequence (Q96RJ0 1-339): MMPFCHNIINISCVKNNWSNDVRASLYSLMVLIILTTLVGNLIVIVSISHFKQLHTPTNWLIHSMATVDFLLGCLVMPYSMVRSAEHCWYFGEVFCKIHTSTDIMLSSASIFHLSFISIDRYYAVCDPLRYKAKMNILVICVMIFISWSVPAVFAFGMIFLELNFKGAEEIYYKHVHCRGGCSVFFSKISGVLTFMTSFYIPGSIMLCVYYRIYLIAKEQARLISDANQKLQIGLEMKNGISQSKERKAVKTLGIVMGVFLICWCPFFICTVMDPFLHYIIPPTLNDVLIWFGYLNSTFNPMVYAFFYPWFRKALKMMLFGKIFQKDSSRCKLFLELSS
Method: Compounds 7–29 synthesized as described above (as well the initial hit compound 1 used as a comparator) were tested in the Bioluminescence Resonance Energy Transfer approach (BRET) assay using HEK-293 cells transiently transfected with cDNA for TAARs as well as cAMP BRET biosensor (EPAC) protein. The compounds were initially tested at 1 μM or 10 μM concentrations and those producing <20% activation of TAAR1 (relative to 1 μM tyramine hydrochloride) were not pursued further. The active compounds were further evaluated in a dose–response mode in order to determine their EC50 values.
The Bioluminescence Resonance Energy Transfer approach (BRET) has been used for functional activity experiments. HEK-293 cells were transiently transfected with cDNA for TAARs and cAMP BRET biosensor (EPAC) protein and then plated in a 96-well plate as described. All compounds were tested at the initial concentrations of 1 μM or 10 μM. Then, for active compounds, a concentration–response analysis was performed in order to calculate the EC50 values. Natural agonist of TAAR1 tyramine hydrochloride was used as a positive control.

[2] = system: dopamine transporter knockout (DAT-KO) rats; assay: DAT-KO rat hyperlocomotion test; format: in vivo; conditions: for Reduction in hyperlocomotion of DAT-KO rats: i.p., 90 min locomotion test, dose range 5–15 mg/kg for 18
Method: Compounds 9, 17–19 were evaluated in dopamine transporter knockout (DAT-KO) rats characterized with psychosis-like hyperlocomotion activity. The ability of compounds to reduce the hyperlocomotion in these genetically modified animals generally deemed as an adequate model of psychosis-like states and schizophrenia was expected to unveil the potential of these compounds as potential therapies for these psychiatric disorders.
Twelve Wistar dopamine transporter knockout (DAT-KO) female rats were utilized for assessment of drugs’ activity on hyperlocomotion. Animals were maintained on a 12/12 light/dark cycle at the room temperature maintained between 20 °C and 23 °C with a relative humidity maintained between 30% and 70%. Chow and water were provided ad libitum for the duration of the studies.
All compounds were dissolved in physiological saline (0.9% solution of NaCl) and intraperitoneally injected in volume 10 mL/kg immediately before locomotion testing.
Rats were intraperitoneally injected with a compound solution or vehicle (saline) and were immediately placed in Plexiglas boxes 40 cm × 40 cm × 40 cm for 90 min. Noldus EthoVision software was used to measure the distance moved by the animals.

[3] = molecular target: T1, TAAR1; design: method as in PMID 11723224; conditions: not tested in this paper; cited from earlier work
[4] = Solubility; format: physicochemical; conditions: reason for not progressing to in vivo tests

| SMILES | EC50 [1] [nM] | Agonistic Activity (class Inactive) [1] | activation at 10 µM [1] [%] | further results |
| --- | --- | --- | --- | --- |
| Cl.NCCC1CCN(C(=O)Nc2ccccc2)CC1 [Compound 1, 4-(2-Aminoethyl)-N-phenylpiperidine-1-carboxamide hydrochloride] | 507 |  |  | Agonistic Activity at 1 μM, % [1]: 65% |
| Cl.NCCC1CCN(C(=O)Nc2cccc(Cl)c2)CC1 [Compound 23, 4-(2-Aminoethyl)-N-(3-chlorophenyl)piperidine-1-carboxamide hydrochloride] |  | Inactive |  |  |
| Cl.NCCC1CCN(C(=O)Nc2cc(F)cc(F)c2)CC1 [Compound 14, 4-(2-Aminoethyl)-N-(3,5-difluorophenyl)piperidine-1-carboxamide hydrochloride] |  | Inactive |  | TAAR1 Activity (active / inactive, in words) [1]: Inactive |
| Cc1ccc(NC(=O)N2CCC(CCN)CC2)cc1F.Cl [Compound 15, 4-(2-Aminoethyl)-N-(3-fluoro-4-methylphenyl)piperidine-1-carboxamide hydrochloride] |  | Inactive |  | EC50, μM [1]: inactive |
| NCCC1CCN(C(=O)c2ccccc2)CC1 [Compound 24, (4-(2-Aminoethyl)piperidin-1-yl)(phenyl)methanone hydrochloride] | 635 |  | 31 |  |
| Cl.NCCC1CCN(C(=O)Nc2ccc(F)cc2F)CC1 [Compound 13, 4-(2-Aminoethyl)-N-(2,4-difluorophenyl)piperidine-1-carboxamide hydrochloride] |  | Inactive |  | TAAR1 Activity (active / inactive, in words) [1]: Inactive |
| Cl.NCCC1CCN(S(=O)(=O)c2ccccc2)CC1 [Compound 26, 2-[1-(Phenylsulfonyl)piperidin-4-yl]ethanamine hydrochloride] |  | Inactive |  |  |
| Cc1ccccc1NC(=O)N1CCC(CCN)CC1.Cl [Compound 10, 4-(2-Aminoethyl)-N-(2-methylphenyl)piperidine-1-carboxamide hydrochloride] |  | Inactive |  | TAAR1 Activity (active / inactive, in words) [1]: Inactive |
| Cc1ccc(C)c(NC(=O)N2CCC(CCN)CC2)c1.Cl [Compound 19, 4-(2-Aminoethyl)-N-(2,5-dimethylphenyl)piperidine-1-carboxamide hydrochloride] | 42 |  | 80 | Reduction in hyperlocomotion of DAT-KO rats [2]: absence of in vivo efficacy |
| Cc1ccc(S(=O)(=O)N2CCC(CCN)CC2)cc1.Cl [Compound 28, 2-{1-[(4-Methylphenyl)sulfonyl]piperidin-4-yl}ethanamine hydrochloride] |  | Inactive |  |  |
| CN1CCC(CCN)CC1.Cl.Cl [Compound 29, 2-(1-Methylpiperidin-4-yl)ethan-1-amine dihydrochloride] |  | Inactive |  | TAAR1 Activity (active / inactive, in words) [1]: inactivity |
| CCc1[nH]nc(C(=O)Nc2ccc([C@H]3CNCCO3)cc2)c1C [Ralmitaront] |  |  |  | TAAR1 Activity (reference ligand) [3]: Active |
| Cc1cccc(NC(=O)N2CCC(CCN)CC2)c1.Cl [Compound 9, 4-(2-Aminoethyl)-N-(3-methylphenyl)piperidine-1-carboxamide hydrochloride] | 52 |  |  | TAAR1 Activity (active / inactive, in words) [1]: Active; Agonistic Activity at 1 μM, % [1]: 89%; Reduction in hyperlocomotion of DAT-KO rats [2]: absence of in vivo efficacy |
| Cc1ccc(NC(=O)N2CCC(CCN)CC2)cc1.Cl [Compound 7, 4-(2-Aminoethyl)-N-(4-methylphenyl)piperidine-1-carboxamide hydrochloride] |  | Inactive ^b |  | TAAR1 Activity (active / inactive, in words) [1]: Inactive |
| Cc1cc(NC(=O)N2CCC(CCN)CC2)ccc1F [Compound 16, 4-(2-Aminoethyl)-N-(4-fluoro-3-methylphenyl)piperidine-1-carboxamide hydrochloride] | 143 |  | 107 |  |
| Cl.NCCC1CCN(C(=O)Nc2cccc(F)c2)CC1 [Compound 8, 4-(2-Aminoethyl)-N-(3-fluorophenyl)piperidine-1-carboxamide hydrochloride] |  | Inactive |  |  |
| COc1ccc(C)cc1NC(=O)N1CCC(CCN)CC1 [Compound 22, 4-(2-Aminoethyl)-N-(2-methoxy-5-methylphenyl)piperidine-1-carboxamide hydrochloride] | 1900 |  | 84 |  |
| Cc1cccc(C(=O)N2CCC(CCN)CC2)c1 [Compound 25, (4-(2-Aminoethyl)piperidin-1-yl)(m-tolyl)methanone] | 634 |  | 41 |  |
| Cc1cc(C)cc(NC(=O)N2CCC(CCN)CC2)c1.Cl [Compound 18, 4-(2-Aminoethyl)-N-(3,5-dimethylphenyl)piperidine-1-carboxamide hydrochloride] | 112 |  | 85 | Effect on DAT-KO hyperlocomotion at 5 mg/kg ([2]; 5 mg/kg i.p., dynamics for 90 min, two-way ANOVA): did not reveal significant effect; Effect on DAT-KO hyperlocomotion at 10 mg/kg ([2]; 10 mg/kg i.p., 90 min, two-way ANOVA): significantly decreased hyperlocomotion; Effect on DAT-KO hyperlocomotion at 15 mg/kg ([2]; 15 mg/kg i.p., 90 min, two-way ANOVA): significantly decreased DAT-KO hyperlocomotion; Reduction in hyperlocomotion of DAT-KO rats ([2]; listed as 18 (AP163)): statistically significant, dose-dependent reduction; also recorded: significantly attenuated DAT-KO hyperlocomotion; Reduction in hyperlocomotion of DAT-KO rats ([2]; listed as AP163): statistically significant and dose-dependent reduction in hyperlocomotion |
| Cl.NCCC1CCN(C(=O)Nc2ccc(F)cc2)CC1 [Compound 11, 4-(2-Aminoethyl)-N-(4-fluorophenyl)piperidine-1-carboxamide hydrochloride] | 206 |  |  | EC50, μM [1]: submicromolar; Agonistic Activity at 1 μM, % [1]: 84% |
| Cc1cccc(NC(=O)N2CCC(CCN)CC2)c1C [Compound 20, 4-(2-Aminoethyl)-N-(2,3-dimethylphenyl)piperidine-1-carboxamide hydrochloride] | 914 |  | 82 |  |
| Cl.NCCC1CCN(S(=O)(=O)c2ccc(F)cc2)CC1 [Compound 27, 2-{1-[(4-Fluorophenyl)sulfonyl]piperidin-4-yl}ethanamine hydrochloride] |  | Inactive |  |  |
| Cl.NCCC1CCN(C(=O)Nc2cccc(C(F)(F)F)c2)CC1 [Compound 21, 4-(2-Aminoethyl)-N-(3-(trifluoromethyl)phenyl)piperidine-1-carboxamide hydrochloride] | 35 |  | 96 | Solubility [4]: poor solubility |
| Cc1ccc(NC(=O)N2CCC(CCN)CC2)cc1C.Cl [Compound 17, 4-(2-Aminoethyl)-N-(3,4-dimethylphenyl)piperidine-1-carboxamide hydrochloride] | 33 |  | 84 | Reduction in hyperlocomotion of DAT-KO rats [2]: absence of in vivo efficacy |
| Cl.NCCC1CCN(C(=O)Nc2cc(F)ccc2F)CC1 [Compound 12, 4-(2-Aminoethyl)-N-(2,5-difluorophenyl)piperidine-1-carboxamide hydrochloride] | 273 |  |  | TAAR1 Activity (active / inactive, in words) [1]: Active; Agonistic Activity at 1 μM, % [1]: 75% |
